{"source": "paper PMC11227529", "about": "“An in-situ peptide-antibody self-assembly to block CD47 and CD24 signaling enhances macrophage-mediated phagocytosis and anti-tumor immune responses” (Nature Communications, 2024)", "key": {"[1]": {"system": "PAN02 subcutaneous tumor", "format": "in vivo, mouse", "from_the_text": "(§1) After the intravenous administration of free Cy5.5, ^Cy5.5SAMIs, and ^Cy5.5PAC-SABIs, the mice were euthanized at the 48-h mark, and the heart, liver, spleen, lung, kidney, and tumor were harvested for ex vivo imaging (Fig. 5e, f). […] Despite the observed retention in metabolic organs such as the liver and kidney, distinct variations in tissue distribution were noted between ^Cy5.5SAMIs and ^Cy5.5PAC-SABIs (Fig. 5e, f and Supplementary Fig. 30). Specifically, ^Cy5.5PAC-SABIs achieved a marked selective enrichment in both BC and PC tumors. […] The discernible dissimilarity between these two molecules could be attributed to the presence of targeted ligands and EISA, which augmented the precise recognition of ^Cy5.5PAC-SABIs toward cancer cells and facilitated their proficient molecular assembly. To further observe the distribution of ^Cy5.5PAC-SABIs in the BC and PC tissues, we analyzed the Cy5.5 fluorescence of tumor sections. […] Moreover, we employed SEM imaging to visualize the in situ self-assembly morphology of PAC-SABIs.\n(§2) To obtain breast and pancreatic subcutaneous xenografts, 1 × 10^6 4T1 or PAN02 cells were implanted into the right hind limb of BALB/c and C57BL/6 mice, respectively. When the tumor size reached ≈ 50 mm^3, mice were randomly sorted into free Cy5.5, ^Cy5.5SAMIs, and ^Cy5.5PAC-SABIs groups. The 4T1 and PAN02 tumor-bearing mice were correspondingly intravenously injected with free Cy5.5, ^Cy5.5SAMIs, and ^Cy5.5PAC-SABIs (the dose of Cy5.5 was 1 mg/kg) for in vivo fluorescence imaging with IVIS system (Perkin Elmer, USA). Then, the mice were sacrificed to collect the major organs (heart, liver, spleen, lung, and kidney) and tumors for ex vivo fluorescence imaging. Finally, the 4T1 and PAN02 tumors were embedded in Tissue-Tek OCT compound (Sakura, Japan), and cryosections of 8 µm thickness were prepared. The Cy5.5 signal was detected using a fluorescence microscope (Nikon, Japan).\n(§3) Supplementary Fig. 30 Quantification analysis of the ex vivo NIR fluorescence intensity in tumors and major organs. a Quantitative calculation of average fluorescence signal in 4T1 tumor and major organ area. The error bars represent the mean ± SD (n = 3 mice; ****p < 0.0001; the p value was analyzed by a two-tailed unpaired Student’s t-test).b Quantitative calculation of average fluorescence signal in PAN02 tumor and major organ area. The error bars represent the mean ± SD (n = 3 mice; ****p < 0.0001; the p value was analyzed by a two-tailed unpaired Student’s t-test).Source data are provided as a Source Data file.\n(§4) (1 picture or pasted object on this page, not shown here)"}, "[2]": {"system": "4T1 subcutaneous tumor", "assay": "Ex vivo NIR fluorescence of tumor and major organs, 48 h", "format": "in vivo, mouse", "from_the_text": "as §1, §2, §3, §4"}}, "note": "Read-outs that look alike come from different tables or passages of the source."}
{"substance": "cyanine 5.5 [free Cy5.5]", "values": [{"measurement": "Average radiant efficiency", "setting": "[1]; Heart, PAN02 model, replicate 1", "result": "0.069 × 10^3 P/Sec"}, {"measurement": "Average radiant efficiency", "setting": "[1]; Heart, PAN02 model, replicate 2", "result": "0.108 × 10^3 P/Sec"}, {"measurement": "Average radiant efficiency", "setting": "[1]; Heart, PAN02 model, replicate 3", "result": "0.122 × 10^3 P/Sec"}, {"measurement": "Average radiant efficiency", "setting": "[1]; Kidney, PAN02 model, replicate 1", "result": "0.064 × 10^3 P/Sec"}, {"measurement": "Average radiant efficiency", "setting": "[1]; Kidney, PAN02 model, replicate 2", "result": "0.137 × 10^3 P/Sec"}, {"measurement": "Average radiant efficiency", "setting": "[1]; Kidney, PAN02 model, replicate 3", "result": "0.152 × 10^3 P/Sec"}, {"measurement": "Average radiant efficiency", "setting": "[1]; Liver, PAN02 model, replicate 1", "result": "0.094 × 10^3 P/Sec"}, {"measurement": "Average radiant efficiency", "setting": "[1]; Liver, PAN02 model, replicate 2", "result": "0.126 × 10^3 P/Sec"}, {"measurement": "Average radiant efficiency", "setting": "[1]; Liver, PAN02 model, replicate 3", "result": "0.145 × 10^3 P/Sec"}, {"measurement": "Average radiant efficiency", "setting": "[1]; Lung, PAN02 model, replicate 1", "result": "0.056 × 10^3 P/Sec"}, {"measurement": "Average radiant efficiency", "setting": "[1]; Lung, PAN02 model, replicate 2", "result": "0.103 × 10^3 P/Sec"}, {"measurement": "Average radiant efficiency", "setting": "[1]; Lung, PAN02 model, replicate 3", "result": "0.159 × 10^3 P/Sec"}, {"measurement": "Average radiant efficiency", "setting": "[1]; PAN02 tumor, replicate 1", "result": "0.125 × 10^3 P/Sec"}, {"measurement": "Average radiant efficiency", "setting": "[1]; PAN02 tumor, replicate 2", "result": "0.056 × 10^3 P/Sec"}, {"measurement": "Average radiant efficiency", "setting": "[1]; PAN02 tumor, replicate 3", "result": "0.141 × 10^3 P/Sec"}, {"measurement": "Average radiant efficiency", "setting": "[1]; Spleen, PAN02 model, replicate 1", "result": "0.046 × 10^3 P/Sec"}, {"measurement": "Average radiant efficiency", "setting": "[1]; Spleen, PAN02 model, replicate 2", "result": "0.093 × 10^3 P/Sec"}, {"measurement": "Average radiant efficiency", "setting": "[1]; Spleen, PAN02 model, replicate 3", "result": "0.157 × 10^3 P/Sec"}, {"measurement": "ex vivo NIR fluorescence accumulation", "setting": "[2]; 4T1 and PAN02 tumor-bearing mice, 48 h after i.v. injection, tumors and major organs", "result": "negligible accumulation in the tumors and major organs"}, {"measurement": "Average radiant efficiency", "setting": "[2]; 4T1 tumor, replicate 1", "result": "0.156 × 10^3 P/Sec"}, {"measurement": "Average radiant efficiency", "setting": "[2]; 4T1 tumor, replicate 2", "result": "0.054 × 10^3 P/Sec"}, {"measurement": "Average radiant efficiency", "setting": "[2]; 4T1 tumor, replicate 3", "result": "0.174 × 10^3 P/Sec"}, {"measurement": "Average radiant efficiency", "setting": "[2]; Heart, 4T1 model, replicate 1", "result": "0.085 × 10^3 P/Sec"}, {"measurement": "Average radiant efficiency", "setting": "[2]; Heart, 4T1 model, replicate 2", "result": "0.174 × 10^3 P/Sec"}, {"measurement": "Average radiant efficiency", "setting": "[2]; Heart, 4T1 model, replicate 3", "result": "0.168 × 10^3 P/Sec"}, {"measurement": "Average radiant efficiency", "setting": "[2]; Kidney, 4T1 model, replicate 1", "result": "0.115 × 10^3 P/Sec"}, {"measurement": "Average radiant efficiency", "setting": "[2]; Kidney, 4T1 model, replicate 2", "result": "0.12 × 10^3 P/Sec"}, {"measurement": "Average radiant efficiency", "setting": "[2]; Kidney, 4T1 model, replicate 3", "result": "0.073 × 10^3 P/Sec"}, {"measurement": "Average radiant efficiency", "setting": "[2]; Liver, 4T1 model, replicate 1", "result": "0.118 × 10^3 P/Sec"}, {"measurement": "Average radiant efficiency", "setting": "[2]; Liver, 4T1 model, replicate 2", "result": "0.061 × 10^3 P/Sec"}, {"measurement": "Average radiant efficiency", "setting": "[2]; Liver, 4T1 model, replicate 3", "result": "0.22 × 10^3 P/Sec"}, {"measurement": "Average radiant efficiency", "setting": "[2]; Lung, 4T1 model, replicate 1", "result": "0.137 × 10^3 P/Sec"}, {"measurement": "Average radiant efficiency", "setting": "[2]; Lung, 4T1 model, replicate 2", "result": "0.09 × 10^3 P/Sec"}, {"measurement": "Average radiant efficiency", "setting": "[2]; Lung, 4T1 model, replicate 3", "result": "0.095 × 10^3 P/Sec"}, {"measurement": "Average radiant efficiency", "setting": "[2]; Spleen, 4T1 model, replicate 1", "result": "0.157 × 10^3 P/Sec"}, {"measurement": "Average radiant efficiency", "setting": "[2]; Spleen, 4T1 model, replicate 2", "result": "0.112 × 10^3 P/Sec"}, {"measurement": "Average radiant efficiency", "setting": "[2]; Spleen, 4T1 model, replicate 3", "result": "0.069 × 10^3 P/Sec"}]}
